Holding throughout (assay type): cell-based
One assay deals with T1, EP4 (Homo sapiens, UniProt P35408).
T1 construct: BT549 breast cancer cells, express high endogenous EP4 levels and very low EP2 levels; host or cells: BT549 breast cancer cells
Briefly: hEP4 cAMP Assay (BT549 breast cancer cells, HTRF cAMP, PGE2 6 nM). The conditions noted are these: antagonistic activity, PGE2 6 nM (EC80). The procedure, abridged:
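Antagonism is measured as inhibition of PGE2 (6 nM final, EC80) cAMP accumulation in EP4-expressing BT549 breast cancer cells, after a 45 min room-temperature compound pre-incubation and 30 min agonist step, with 2 mM IBMX present. HTRF ratio gives cAMP relative to DMSO; IC50 fitted, means over repeat runs.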

A further assay has as its target T2, PTGER4 (EP4) (Homo sapiens, UniProt P35408).
T2 construct: host or cells: HEK 293 (PathHunter, stably transfected)
The experiment in a line: hEP4 b-Arrestin Assay (PathHunter HEK 293 PTGER4 b-arrestin cells, PGE2 20 nM). To be noted: antagonistic activity, beta-arrestin assay, HEK 293 PTGER4 cells, PGE2 20 nM (EC80); read-out: hEP4 b-arr IC50. The procedure, abridged: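 PathHunter HEK 293 EP4 b-arrestin enzyme-complementation cells preincubated 15 min at 37° C with compound (10 μM-2 nM or 1 μM-0.2 nM), then stimulated 120 min with 20 nM PGE2 (EC80). Chemiluminescence read; IC50 from duplicate % activity vs DMSO, one-site fit, averaged over repeats.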

In the next assay the target is T3, PTGER2 (EP2) (Homo sapiens, UniProt P43116).
T3 construct: host or cells: HEK 293 (PathHunter, stably transfected)
Briefly: hEP2 b-Arrestin Assay (PathHunter HEK 293 PTGER2 b-arrestin cells, PGE2 5 μM). The conditions noted are these: antagonistic activity, beta-arrestin assay, HEK 293 PTGER2 cells, PGE2 5 μM (EC80); read-out: hEP2 b-arr IC50. The gist of the method: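 PathHunter enzyme-fragment complementation in HEK 293 cells: compounds (10 μM-2 nM or 1 μM-0.2 nM) pre-incubated 15 min at 37 °C, then 5 μM PGE2 (EC80) for 120 min at 37 °C. Chemiluminescence read after 1 h detection; IC50 from duplicate dose-response fits, means of repeats.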

Another assay has as its target T4, EP2 (Homo sapiens, UniProt P43116).
T4 construct: SF295 glioblastoma cells express high endogenous EP2 and no EP4; host or cells: SF295 glioblastoma cells
The experiment in a line: hEP2 cAMP Assay (SF295 glioblastoma cells, HTRF cAMP, PGE2 75 nM). The conditions noted are these: antagonistic activity, PGE2 75 nM (EC80). The procedure, abridged: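 IC50 values derive from duplicate-point curves of percent cAMP relative to DMSO, read by HTRF (665/620 nm) against a cAMP calibrator. Compounds (30 μM to 0.01 nM ranges) were given 45 min at room temperature before 30 min with 75 nM PGE2, in EP2-only SF295 cells with 2 mM IBMX.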

T3 sequence (P43116 whole entry): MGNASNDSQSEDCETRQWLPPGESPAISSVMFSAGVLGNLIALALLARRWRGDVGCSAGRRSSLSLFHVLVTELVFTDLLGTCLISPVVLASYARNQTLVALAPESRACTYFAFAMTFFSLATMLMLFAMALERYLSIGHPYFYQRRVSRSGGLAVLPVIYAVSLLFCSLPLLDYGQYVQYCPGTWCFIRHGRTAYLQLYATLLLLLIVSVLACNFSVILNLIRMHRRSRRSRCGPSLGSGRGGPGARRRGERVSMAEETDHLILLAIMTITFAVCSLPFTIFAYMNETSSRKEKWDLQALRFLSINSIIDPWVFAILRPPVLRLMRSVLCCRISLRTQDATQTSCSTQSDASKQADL
T4 sequence (P43116 whole entry): as above
T1 sequence (P35408 whole entry): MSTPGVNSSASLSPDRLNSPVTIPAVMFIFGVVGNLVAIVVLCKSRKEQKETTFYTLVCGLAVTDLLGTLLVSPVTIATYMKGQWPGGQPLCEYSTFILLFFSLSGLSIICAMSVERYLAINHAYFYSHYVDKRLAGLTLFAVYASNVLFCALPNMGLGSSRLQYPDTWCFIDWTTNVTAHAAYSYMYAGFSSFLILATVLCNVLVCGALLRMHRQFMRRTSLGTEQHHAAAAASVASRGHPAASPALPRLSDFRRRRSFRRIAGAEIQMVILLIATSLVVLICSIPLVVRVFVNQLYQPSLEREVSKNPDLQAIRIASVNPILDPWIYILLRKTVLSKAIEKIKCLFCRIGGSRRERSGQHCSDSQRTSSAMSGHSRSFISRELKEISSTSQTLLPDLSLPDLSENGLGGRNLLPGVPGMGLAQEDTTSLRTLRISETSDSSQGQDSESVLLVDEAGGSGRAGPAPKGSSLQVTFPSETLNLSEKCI
T2 sequence (P35408 whole entry): as above

As to `CCOc1cc(-c2cc(NCCc3c(OC)ccc4ncccc34)ncn2)sc1-c1noc(=O)[nH]1` [Example 142, 3-(3-Ethoxy-5-{6-[2-(6-methoxy-quinolin-5-yl)-ethylamino]-pyrimidin-4-yl}-thiophen-2-yl)-[1,2,4]oxadiazol-5(4H)-one], the IC50 against EP4 came to 27 nM; at PTGER4 (EP4), 10 nM; at PTGER2 (EP2), 7 nM; at EP2, 40 nM.
For the compound `CCOc1cc(-c2cc(NCCc3cccc4cc[nH]c34)ncn2)sc1-c1noc(=O)[nH]1` [Example 143, 3-(3-Ethoxy-5-{6-[2-(1H-indol-7-yl)-ethylamino]-pyrimidin-4-yl}-thiophen-2-yl)-[1,2,4]oxadiazol-5(4H)-one], the IC50 against EP4 is 105 nM; at PTGER4 (EP4), 21 nM; on PTGER2 (EP2) it was 31 nM; on EP2, 90 nM.
In the case of `CCOc1cc(-c2cc(NCCc3cccc4cnccc34)ncn2)sc1-c1noc(=O)[nH]1` [Example 144, 3-{3-Ethoxy-5-[6-(2-isoquinolin-5-yl-ethylamino)-pyrimidin-4-yl]-thiophen-2-yl}-[1,2,4]oxadiazol-5(4H)-one], the IC50 at EP4 was 40 nM; on PTGER4 (EP4), 20 nM; at PTGER2 (EP2) it was 30 nM; at EP2, 71 nM.
As to `CCOc1cc(-c2cc(NCCc3c(OC)ccc4ncccc34)ncn2)sc1-c1nnn[nH]1` [Example 145, {6-[4-Ethoxy-5-(1H-tetrazol-5-yl)-thiophen-2-yl]-pyrimidin-4-yl}-[2-(6-methoxy-quinolin-5-yl)-ethyl]-amine], the IC50 against EP4 is 53 nM; on PTGER4 (EP4) it was 18 nM; on PTGER2 (EP2) it was 16 nM; on EP2 it was 81 nM.
On the same counts, the results for `CCOc1nc(-c2cc(NCCc3c(OC)ccc4ccccc34)ncn2)sc1C(=O)O` [Example 147, 4-Ethoxy-2-{6-[2-(2-methoxy-naphthalen-1-yl)-ethylamino]-pyrimidin-4-yl}-thiazole-5-carboxylic Acid] are 44 nM, 40 nM, 7 nM and 10 nM.
On the same counts, the results for `CCc1nc(-c2cc(NCCc3c(OC)ccc4ccccc34)ncn2)sc1C(=O)O` [Example 148, 4-Ethyl-2-{6-[2-(2-methoxy-naphthalen-1-yl)-ethylamino]-pyrimidin-4-yl}-thiazole-5-carboxylic Acid] are 548 nM, 264 nM, 20 nM and 27 nM.
The like results for `CCOc1nc(-c2cc(NCCc3c(OC)ccc4ccccc34)ncn2)sc1-c1noc(=O)[nH]1` [Example 149, 3-(4-Ethoxy-2-{6-[2-(2-methoxy-naphthalen-1-yl)-ethylamino]-pyrimidin-4-yl}-thiazol-5-yl)-[1,2,4]oxadiazol-5(4H)-one] were, in that order, 52 nM, 6 nM, 5 nM and 15 nM.
Take `COc1ccc2ccc(F)c(CCNc3cc(-c4cc(C(F)(F)F)c(C(=O)O)s4)ncn3)c2n1` [Example 151, 5-{6-[2-(7-Fluoro-2-methoxy-quinolin-8-yl)-ethylamino]-pyrimidin-4-yl}-3-trifluoromethyl-thiophene-2-carboxylic acid]: the half-inhibitory concentration (IC50) against EP4 is 228 nM; on PTGER4 (EP4), 478 nM; at PTGER2 (EP2), 414 nM; against EP2 it was 214 nM.
For the compound `COc1ccc2c(c1CCNc1cc(-c3cc(C(F)(F)F)c(C(=O)O)s3)ncn1)CCCN2C` [Example 154, 5-{6-[2-(6-Methoxy-1-methyl-1,2,3,4-tetrahydro-quinolin-5-yl)-ethylamino]-pyrimidin-4-yl}-3-trifluoromethyl-thiophene-2-carboxylic Acid], the IC50 worked out at 177 nM against EP4, 125 nM at PTGER4 (EP4), 57 nM on PTGER2 (EP2) and 144 nM at EP2.

The values are drawn from patent publication US11446298B2, “Pyrimidine derivatives” (Idorsia Pharmaceuticals Ltd, priority 2017, dated 2022).
